Assay results taken from the NIST ThermoML archive (doi:10.1016/j.fluid.2019.05.003).

Assay: xn = mol fraction of the nth substance listed
Conditions: 101 kPa, Liquid; for viscosity: Falling or rolling sphere viscometry; for mass density: Vibrating tube method

CC[N+]1(C)CCOCC1.[Br-] [N-ethyl-N-methylmorpholinium bromide] + O
Conditions	mass density [kg/m3]	viscosity [mPa·s]
298.15 K, x1 = 0.023	1062.6	1.197
298.15 K, x1 = 0.045	1111.8	1.56
298.15 K, x1 = 0.07	1156	2.228
298.15 K, x1 = 0.1	1197.3	3.5
298.15 K, x1 = 0.128	1227	5.195
298.15 K, x1 = 0.16	1254.9	8.371
298.15 K, x1 = 0.192	1278.3	13.81
298.15 K, x1 = 0.22	1295.2	22.13
298.15 K, x1 = 0.252	1311.3	37.25
303.15 K, x1 = 0.023	1060.7	1.06
303.15 K, x1 = 0.045	1109.6	1.391
303.15 K, x1 = 0.07	1153.6	1.983
303.15 K, x1 = 0.1	1194.6	3.126
303.15 K, x1 = 0.128	1224.2	4.423
303.15 K, x1 = 0.16	1252	7.156
303.15 K, x1 = 0.192	1275.3	11.53
303.15 K, x1 = 0.22	1292.1	18.2
303.15 K, x1 = 0.252	1308.2	29.81
308.15 K, x1 = 0.023	1058.6	0.961
308.15 K, x1 = 0.045	1107.3	1.254
308.15 K, x1 = 0.07	1151	1.778
308.15 K, x1 = 0.1	1191.8	2.816
308.15 K, x1 = 0.128	1221.3	3.944
308.15 K, x1 = 0.16	1249	6.192
308.15 K, x1 = 0.192	1272.3	9.829
308.15 K, x1 = 0.22	1289	15.03
308.15 K, x1 = 0.252	1305	24.22
313.15 K, x1 = 0.023	1056.3	0.876
313.15 K, x1 = 0.045	1104.8	1.136
313.15 K, x1 = 0.07	1148.3	1.566
313.15 K, x1 = 0.1	1189	2.543
313.15 K, x1 = 0.128	1218.4	3.485
313.15 K, x1 = 0.16	1246	5.438
313.15 K, x1 = 0.192	1269.2	8.443
313.15 K, x1 = 0.22	1285.9	12.5
313.15 K, x1 = 0.252	1301.9	19.81
318.15 K, x1 = 0.023	1053.7	0.805
318.15 K, x1 = 0.045	1102.2	1.037
318.15 K, x1 = 0.07	1145.6	1.45
318.15 K, x1 = 0.1	1186.1	2.291
318.15 K, x1 = 0.128	1215.4	3.1
318.15 K, x1 = 0.16	1243	4.738
318.15 K, x1 = 0.192	1266.1	7.253
318.15 K, x1 = 0.22	1282.8	10.46
318.15 K, x1 = 0.252	1298.7	16.49
323.15 K, x1 = 0.023	–	0.756
323.15 K, x1 = 0.045	–	0.953
323.15 K, x1 = 0.07	–	1.328
323.15 K, x1 = 0.1	–	2.098
323.15 K, x1 = 0.128	–	2.776
323.15 K, x1 = 0.16	–	4.235
323.15 K, x1 = 0.192	–	6.32
323.15 K, x1 = 0.22	–	8.952
323.15 K, x1 = 0.252	–	13.88
